Experimental data from patent publication US12714706B2, “Methods of treating small cell lung cancer with lurbinectedin formulations” (PHARMA MAR, S.A., priority 2019, dated 2026).
Converted amounts (≈) assume the structure as drawn. Like-named read-outs stand apart in the source and are kept apart here.

Columns and labels:
[1] = lurbinectedin single agent 3.2 mg/m2 (ref); n=329; mean (SD); cited from earlier work
[2] = Maximum solubility of lurbinectedin in different molarities of lactic acid; type: physicochemical; conditions: lactic acid solution, aqueous buffer
Experimental: As such, in embodiments, a concentrated lurbinectedin solution is prepared in organic acid before addition of other excipients. In preferred embodiments, the organic acid has a pH less than 4, preferably less than 3.5, more preferably less than 3, or around 3. The maximum solubility of lurbinectedin was investigated in different molarities of the organic acid lactic acid. […] In a preferred embodiment, lurbinectedin is dissolved in an organic acid with a molarity of around 0.1M to 0.5M, preferably around 0.2M to 0.4M, more preferably around 0.3M organic acid. An exemplary molarity is 0.31M organic acid.

[3] = Lurbinectedin plus irinotecan trial: pharmacokinetics of lurbinectedin, irinotecan and SN-38; conditions: combination: lurbinectedin 1.0-2.4 mg/m2 + irinotecan 75 mg/m2; n=39; mean (SD)
patients = conditions: previous analysis, dose based on body surface area; cited from earlier work
[4] = Phase 2 trial of lurbinectedin monotherapy: plasma pharmacokinetics; type: in vivo; conditions: human, intravenous, 3.2 mg/m^2 as 1-hour infusion
Experimental: The plasma PK of lurbinectedin was evaluated during Cycles 1 and 2 in all treated patients. The sampling schedule is shown in Table 15 and Table 16, respectively.
PK analysis of plasma-concentration-time data of lurbinectedin was performed using non-linear mixed-effects modeling and/or non-compartment analysis.

advanced solid tumors = test: Lurbinectedin plus irinotecan trial: efficacy per tumor type (RECIST v1.1, PFS, OS); type: in vivo, human; conditions: all doses
Source text: Secondary outcome measures included safety evaluation, peak plasma concentration (Cmax), area-under-the plasma concentration versus time curve (AUC), volume of distribution based on the terminal half-life (Vz), volume of distribution at steady state (Vss), clearance (CL), half-life (t½), evaluation of antitumor response (RECIST v1.1, start of treatment until PD, other antitumor therapy, death or until 12 months after the inclusion of the last evaluable patient in the study (end of study), whichever occurs first), progression-free survival (from the date of first infusion of study treatment to the date of progression or death or until 12 months after end of study, whichever occurs first), and overall survival (from the date of first infusion to study treatment to the date or death or until 12 months after end of study, whichever occurs first).
Encouraging activity has been observed in patients with SOLO, including some cases as third line treatment. Signals of activity were also observed in endometrial carcinoma and soft tissue sarcoma (STS) and glioblastoma (GBM). Consequently, a Phase II expansion at the RD to further explore efficacy and safety in SOLO, GBM, STS, and endometrial carcinoma. A total of […] patients were treated at the RD, including n=15 SOLO, n=11 endometrial cancer, n=10 STS, and n=20 GBM patients.

SCLC = test: Phase 2 trial of lurbinectedin monotherapy in SCLC: antitumor activity (ORR, DOR, PFS, OS; RECIST v1.1); type: in vivo, human
Experimental: A clinical study of lurbinectedin monotherapy for patients collectively afflicted with SCLC who have refractory or resistant disease, as defined herein, was carried out. In this clinical single-arm, multi-center, open-label, phase 2 trail, a cohort of 105 patients, who had measurable disease, including patients whose SCLC was unresponsive to first-line platinum-containing chemotherapy (cisplatin, carboplatin or oxaliplatin) (refractory) and patients whose SCLC recurred within or equal to 90 days after cessation of first-line therapy (resistant), were treated with lurbinectedin at a dosage of 3.2 mg/m^2 given intravenously over a period of 1 hour every 21 days. Lurbinectedin was provided as a sterile isotonic aqueous solution for IV infusion as described below.
Starting dose was 3.2 mg/m^2. Dose was capped at body surface area of […] (e.g. dose not allowed to exceed 6.4 mg). Patients received lurbinectedin i.v. as a one-hour infusion on Day 1 every three weeks until disease progression or unacceptable toxicity. Three weeks was defined as one treatment cycle.
The primary objective of this study was to assess the antitumor activity of lurbinectedin in terms of overall response rate (ORR) as primary endpoint and supported by duration of response (DOR) as secondary endpoint. ORR was assessed using RECIST v1.1. on a set of measurable lesions identified at baseline as target lesions or as non-target lesions (if any), and followed until disease progression (PD) by an appropriate method.
Radiological tumor assessment (CT scan or MRI) was performed at baseline, and every 6 weeks from the onset of the study treatment until cycle 6 or evidence of PD, and every 9 weeks thereafter. If an objective response was observed, according to RECIST v1.1., it had to be confirmed by the same method at least four weeks after the date of the first documentation of response.
ORR was defined as the percentage of evaluable patients with a confirmed response, either complete (CR) or partial response (PR), from the start of treatment to the date of progression or the start of a subsequent therapy or end of patients follow-up according to RECIST v1.1. DOR was calculated […], recurrence, or death due to any cause in the responder patients. The date of response, the date of radiological or clinical PD, according to the investigator assessment and the independent assessment by an independent review committee (IRC), and the date of death was registered and documented, as appropriate. The IRC determined the patient's best response and assigned the date of first documentation of response and progression/censoring according to RECIST v1.1.
Counts and percentages, with their corresponding exact 95% confidence intervals were calculated for the binominal endpoints (i.e. ORR, clinical benefit). Time-to-event variables (OS, PFS, and DOR) and their set time estimates (i.e. PFS4/6 and OS6/12) were analyzed according to Kaplan-Meier method. The evaluation of the efficacy endpoints evaluated by IA and IRC were analyzed and compared.

[5] = chemotherapy-free interval less than 90 days (resistant)

Structure (SMILES): COc1ccc2[nH]c3c(c2c1)CCN[C@]31CS[C@@H]2c3c(OC(C)=O)c(C)c4c(c3[C@H](COC1=O)N1[C@@H]2[C@H]2c3c(cc(C)c(OC)c3O)C[C@@H]([C@@H]1O)N2C)OCO4 [lurbinectedin, Lurbinectedin]
- CL [1]: 12.4 (7.6) L/h
- Cmax [1]: 127.5 (100.2) ug/L
- HL [1]: 42.6 (38.4) h
- Vz [1]: 664.7 (460.3) L
- solubility ([2]; 0.05M lactic acid): 7.2 mg/mL (≈ 9.17 mM)
- solubility ([2]; 0.5M lactic acid): 90.4 mg/mL (≈ 115 mM)
- HL [3]: 44.2 (22.4) h
- Incidence of febrile neutropenia (patients): lower than 10%
- AUC(0-inf) [4]: ~0.551 µg·h/mL
- Cmax ([4]; read-out: Mean total plasma Cmax): ~0.107 µg/mL
- CBR (ORR + SD >4 mo) (advanced solid tumors; Endometrial (n = 10 evaluable)): 60%
- DCR (ORR + SD) (advanced solid tumors; Endometrial (n = 10 evaluable)): 100%
- Median DoR (advanced solid tumors; Endometrial (n = 10 evaluable)): 4.6 mo
- Median PFS (advanced solid tumors; Endometrial (n = 10 evaluable)): 7.1 mo
- ORR* (PR) (advanced solid tumors; Endometrial (n = 10 evaluable)): 3 (30) n(%)
- PFS rate at 6 mo (advanced solid tumors; Endometrial (n = 10 evaluable)): 50%
- CBR (ORR + SD >4 mo) (advanced solid tumors; GBM (n = 16 evaluable)): 18.8%
- DCR (ORR + SD) (advanced solid tumors; GBM (n = 16 evaluable)): 43.8%
- Median PFS (advanced solid tumors; GBM (n = 16 evaluable)): 1.4 mo
- ORR* (PR) (advanced solid tumors; GBM (n = 16 evaluable)): 1 (6.3) n(%)
- PFS rate at 6 mo (advanced solid tumors; GBM (n = 16 evaluable)): 7.1%
- CBR (ORR + SD >4 mo) (advanced solid tumors; SCLC (n = 13 evaluable)): 76.9%
- DCR (ORR + SD) (advanced solid tumors; SCLC (n = 13 evaluable)): 84.6%
- Median DoR (advanced solid tumors; SCLC (n = 13 evaluable)): 4.6 mo
- Median PFS (advanced solid tumors; SCLC (n = 13 evaluable)): 4.3 mo
- ORR* (PR) (advanced solid tumors; SCLC (n = 13 evaluable)): 9 (69.2) n(%)
- PFS rate at 6 mo (advanced solid tumors; SCLC (n = 13 evaluable)): 36.3%
- CBR (ORR + SD >4 mo) (advanced solid tumors; STS (n = 10 evaluable)): 40%
- DCR (ORR + SD) (advanced solid tumors; STS (n = 10 evaluable)): 80%
- Median PFS (advanced solid tumors; STS (n = 10 evaluable)): 2.6 mo
- ORR* (PR) (advanced solid tumors; STS (n = 10 evaluable)): 0 n(%)
- PFS rate at 6 mo (advanced solid tumors; STS (n = 10 evaluable)): 33.8%
- Median overall survival of patients with initial objective response (post-hoc) (SCLC; 37 responders, overall population): 12.6 months
- Duration of response, median (SCLC; IRC assessment, overall): 5.1 months
- Overall response rate (CR + PR) (SCLC; Investigator assessment, resistant disease (CTFI <90 days, n = 45)): 22.2%
- Patients alive at 1 year after the first dose (SCLC; chemotherapy-free interval less than 90 days (n = 45)): 16%
- Median overall survival (SCLC; [5]): 5.0 months
- Median progression-free survival (SCLC; [5]): 2.6 months
- Disease progression with new lesions in the CNS (SCLC; of 94 patients who discontinued lurbinectedin): 9%
- Median overall survival of patients with initial objective response (post-hoc) (SCLC; responders with resistant disease): 10.9 months
